Assay results from the supplement of paper PMC10307832.

Experiments:
Assay in all cases: relative viability (nuclei count vs DMSO), 5 days (fraction); higher = more cells survive
4EGI-1 + Linsitinib = compound: O=C(O)C(Cc1ccccc1[N+](=O)[O-])=NNc1nc(-c2ccc(Cl)c(Cl)c2)cs1 (mixture of isomers) [4EGI-1] + C[C@]1(O)C[C@@H](c2nc(-c3ccc4ccc(-c5ccccc5)nc4c3)c3c(N)nccn32)C1 [Linsitinib] (partner 1 µM)
How it was run: (§1)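 Lung cancer cell lines were pin-tool dosed in 1536-well plates on the day after seeding, with either a lone drug or a fixed anchor-drug dose plus five library-drug doses (not always all listed) in √10 steps. Nuclei were counted on 4× images after 5 days. Relative viability is the ratio of treated-well to vehicle-well nuclei counts, with each value a median of duplicate plates.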

XMD8-85 + Decitabine = compound: CN1CCN(CC1)C2=CC(=C(C=C2)NC3=NC=C4C(=N3)N(C5=CC=CC=C5C(=O)N4C)C)OC [XMD8-85] + Nc1ncn([C@H]2C[C@H](O)[C@@H](CO)O2)c(=O)n1 [Decitabine] (partner 2 µM)
How it was run: as §1

XMD8-85 + Luminespib = compound: CN1CCN(CC1)C2=CC(=C(C=C2)NC3=NC=C4C(=N3)N(C5=CC=CC=C5C(=O)N4C)C)OC [XMD8-85] + CCNC(=O)c1noc(-c2cc(C(C)C)c(O)cc2O)c1-c1ccc(CN2CCOCC2)cc1 [Luminespib] (partner 0.01 µM)
How it was run: as §1

XMD8-85 + Phenformin = compound: CN1CCN(CC1)C2=CC(=C(C=C2)NC3=NC=C4C(=N3)N(C5=CC=CC=C5C(=O)N4C)C)OC [XMD8-85] + N=C(N)NC(=N)NCCc1ccccc1 [Phenformin] (partner 250 µM)
How it was run: as §1

Row | Cell Line | relative viability (4EGI-1 + Linsitinib; first compound 0.5 µM) | relative viability (4EGI-1 + Linsitinib; first compound 1.581 µM) | relative viability (4EGI-1 + Linsitinib; first compound 5 µM) | relative viability (4EGI-1 + Linsitinib; first compound 15.81 µM) | relative viability (4EGI-1 + Linsitinib; first compound 50 µM) | relative viability (XMD8-85 + Decitabine; first compound 0.08 µM) | relative viability (XMD8-85 + Decitabine; first compound 0.253 µM) | relative viability (XMD8-85 + Decitabine; first compound 2.53 µM) | relative viability (XMD8-85 + Decitabine; first compound 8 µM) | relative viability (XMD8-85 + Luminespib; first compound 0.08 µM) | relative viability (XMD8-85 + Luminespib; first compound 0.253 µM) | relative viability (XMD8-85 + Luminespib; first compound 0.8 µM) | relative viability (XMD8-85 + Luminespib; first compound 2.53 µM) | relative viability (XMD8-85 + Luminespib; first compound 8 µM) | relative viability (XMD8-85 + Phenformin; first compound 0.08 µM) | relative viability (XMD8-85 + Phenformin; first compound 0.253 µM) | relative viability (XMD8-85 + Phenformin; first compound 2.53 µM) | relative viability (XMD8-85 + Phenformin; first compound 8 µM) | relative viability (XMD8-85 + Decitabine; first compound 0.8 µM) | relative viability (XMD8-85 + Phenformin; first compound 0.8 µM)
1 | EMC-BAC-2 | 0.86 | 0.748 | 0.791 | 0.777 | 0.736 | 0.873 | 0.961 | 1.05 | 0.887 | 1.26 | 1.24 | 1.21 | 1.28 | 0.951 | 0.475 | 0.518 | 0.517 | 0.429 | – | –
2 | LK-2 | 0.587 | 0.357 | 0.777 | 0.604 | 0.549 | 0.255 | 0.295 | 0.246 | 0.232 | – | 0.184 | 0.192 | 0.155 | 0.162 | – | 0.279 | 0.374 | 0.213 | 0.268 | 0.377
3 | EPLC-272H | 1.31 | 0.938 | 1.19 | 1.21 | 1.24 | 0.347 | 0.36 | 0.294 | 0.305 | 0.266 | 0.373 | 0.629 | 0.389 | 0.186 | 0.281 | 0.272 | 0.358 | 0.272 | 0.314 | 0.318
4 | HCC-366 | 0.791 | 0.697 | 0.741 | 0.772 | 0.382 | 0.342 | 0.302 | 0.511 | 0.393 | – | – | – | – | – | 0.598 | 0.611 | 0.63 | 0.649 | 0.375 | 0.617
5 | NCI-H1793 | 1 | 0.996 | 0.819 | 0.645 | 0.747 | – | 0.473 | 0.575 | 0.583 | 0.144 | 0.182 | 0.146 | 0.201 | 0.23 | 0.402 | 0.409 | 0.375 | 0.317 | 0.482 | 0.38
6 | NCI-H3122 | 1.04 | 0.956 | 0.943 | 1.01 | 0.567 | 0.401 | 0.439 | 0.507 | 0.543 | 0.117 | – | 0.115 | 0.106 | 0.102 | 0.388 | 0.383 | 0.373 | 0.32 | 0.481 | 0.389
7 | NCI-H2342 | – | – | – | – | – | 0.7 | 0.709 | 0.777 | 0.867 | 0.649 | 0.719 | 0.74 | 0.809 | 0.887 | 0.646 | 0.56 | 0.608 | 0.599 | 0.677 | 0.682
8 | NCI-H1563 | 1.31 | 0.979 | 1.29 | 1.22 | 0.883 | – | – | – | – | 0.608 | 0.488 | 0.505 | 0.536 | 0.567 | 0.65 | 0.609 | – | 0.615 | – | 0.63
9 | NCI-H2228 | 0.778 | 0.783 | 0.734 | 0.721 | 0.166 | – | – | – | – | 0.154 | 0.209 | 0.114 | 0.188 | 0.185 | 0.235 | 0.293 | 0.334 | 0.261 | – | 0.34
10 | Calu-6 | 1.11 | 0.729 | 0.995 | 0.851 | 0.9 | – | – | – | – | – | – | – | – | – | – | – | – | – | – | –
11 | NCI-H1299 | 0.944 | 0.931 | 0.994 | 1.05 | 0.849 | – | – | – | – | – | – | – | – | – | – | – | – | – | – | –
12 | NCI-H1650 | – | – | – | – | – | 0.539 | 0.414 | 0.374 | 0.371 | 0.203 | 0.216 | 0.199 | 0.173 | 0.173 | 0.411 | 0.449 | 0.36 | 0.178 | 0.487 | 0.401
13 | NCI-H2170 | – | – | – | – | – | 0.478 | 0.478 | 0.497 | 0.484 | 0.887 | 0.609 | 0.931 | 0.894 | 0.474 | 0.4 | 0.431 | 0.41 | 0.366 | 0.498 | 0.447
14 | EBC-1 | 0.992 | 1 | 0.995 | 0.652 | 1.04 | – | – | – | – | – | – | – | – | – | – | – | – | – | – | –
15 | HCC-78 | 0.612 | 0.373 | 0.453 | 0.484 | 0.479 | 0.672 | 0.694 | 0.671 | 0.675 | – | – | – | – | – | 0.705 | 0.84 | 0.665 | 0.46 | 0.736 | 0.695
16 | NCI-H1703 | 1.4 | 0.632 | 1.06 | 1.27 | 0.994 | – | – | – | – | – | – | – | – | – | – | – | – | – | – | –
17 | NCI-H1648 | – | – | – | – | – | 0.478 | 0.447 | 0.638 | 0.561 | – | – | – | – | – | – | – | – | – | 0.635 | –
18 | SW 900 | – | – | – | – | – | 0.505 | 0.45 | 0.458 | 0.506 | 0.164 | 0.195 | 0.175 | 0.165 | 0.152 | 0.448 | 0.523 | 0.554 | 0.22 | 0.406 | 0.675
19 | NCI-H522 | – | – | – | – | – | 0.739 | 0.669 | 0.782 | 0.635 | 1.15 | 1.31 | 0.92 | 1.06 | 0.97 | 0.664 | 0.697 | 0.367 | 0.67 | 0.615 | 0.338
20 | ChaGo-K-1 | – | – | – | – | – | 0.553 | 0.521 | 0.525 | 0.45 | 0.603 | 0.577 | 0.71 | 0.585 | 0.501 | 0.421 | 0.533 | 0.512 | – | 0.551 | 0.493
